Test results reported in US20260226527A1, “METHODS FOR IDENTIFYING HERBICIDAL COMPOUNDS” (SYNGENTA CROP PROTECTION AG, priority 2023, published 2026).

Target: T1, mature Arabidopsis BIO3-BIO1 (SEQ ID NO: 21) (Arabidopsis thaliana, UniProt B0F481)
T1 construct: 6xHis (N); thrombin cleavage site (N); made in house; host or cells: E. coli BL21 (DE3) bioA
T1 sequence (B0F481 with tags, fused parts or gaps): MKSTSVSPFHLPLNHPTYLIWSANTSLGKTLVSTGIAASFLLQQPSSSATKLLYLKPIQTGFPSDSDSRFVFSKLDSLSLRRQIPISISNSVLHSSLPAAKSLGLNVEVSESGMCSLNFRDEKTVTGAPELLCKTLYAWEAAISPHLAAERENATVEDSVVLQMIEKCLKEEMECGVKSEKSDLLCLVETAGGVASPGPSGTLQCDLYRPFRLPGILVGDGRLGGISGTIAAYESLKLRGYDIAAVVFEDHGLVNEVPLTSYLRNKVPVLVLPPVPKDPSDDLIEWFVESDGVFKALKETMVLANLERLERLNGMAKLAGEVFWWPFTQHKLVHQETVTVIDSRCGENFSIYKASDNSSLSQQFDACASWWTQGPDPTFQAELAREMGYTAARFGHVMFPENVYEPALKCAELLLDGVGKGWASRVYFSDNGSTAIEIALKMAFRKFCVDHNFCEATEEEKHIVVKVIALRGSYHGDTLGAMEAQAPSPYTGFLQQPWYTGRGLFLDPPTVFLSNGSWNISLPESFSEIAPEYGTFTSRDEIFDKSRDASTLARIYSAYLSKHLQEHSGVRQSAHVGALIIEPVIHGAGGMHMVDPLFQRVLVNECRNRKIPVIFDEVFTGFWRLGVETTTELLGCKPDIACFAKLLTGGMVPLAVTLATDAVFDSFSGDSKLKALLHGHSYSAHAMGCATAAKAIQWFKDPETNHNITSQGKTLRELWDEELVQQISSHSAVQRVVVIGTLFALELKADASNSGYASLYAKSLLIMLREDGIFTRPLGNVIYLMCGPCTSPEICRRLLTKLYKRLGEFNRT
Test: DAPA-AT assay with spermidine as amine donor, fluorescent detection of DAPA:o-phthalaldehyde
Type: biochemical
Settings: 10 μM spermidine, 1 μM KAPA, 60 minutes at 20° C.; for inhibition at 1 µM: inhibitor concentration 1 μM; for inhibition at 5 µM: inhibitor concentration 5 μM; for inhibition at 20 µM: inhibitor concentration 20 μM; for inhibition at 100 µM: inhibitor concentration 100 μM; for inhibition at 0.2 µM: inhibitor concentration 0.2 μM
Description: A pET-24 plasmid containing a DNA sequence encoding BIO3-BIO1 derived from Arabidopsis thaliana, codon-optimised for expression in E. coli, with the predicted N-terminal mitochondrial transit peptide removed and with an N-terminal 6×His-tag and thrombin cleavage site and under control of a T7 promoter (SEQ ID NO:38), was synthesised by Twist Bioscience. The plasmid was expressed in E. coli BL21 (DE3) bioA with 50 μg/mL kanamycin and 25 μg/mL chloramphenicol selection. Overnight cultures grown at 37° C. were used to inoculate 8×500 mL AIM in shake flasks at a ratio of 1:100. Cultures were grown at 37° C., 200 rpm for 3.5 hours and then overnight at 20° C. Cells were harvested by centrifugation for 30 minutes at 10 000 g. Cells were stored at −80° C. until extraction. 30 g of cell pellet from was thawed in 120 mL of IMAC buffer A (20 mM HEPES pH7.5, 25 mM imidazole, 500 mM sodium chloride, 0.15 mM pyridoxal phosphate, 0.5 mM TCEP, 1×complete Protease Inhibitor Tablet (Roche)). The resuspension was passed through a cell disrupter at 18 000 PSI and centrifuged at 50 000 g for 25 minutes at 4° C. The His-tagged BIO3-BIO1 protein was purified from the extract supernatant on an ÄKTA avant chromatography system (Cytiva) using a HisTrap FF column and eluted in IMAC buffer B ((20 mM HEPES pH7.5, 500 mM imidazole, 500 mM sodium chloride, 0.15 mM pyridoxal phosphate, 0.5 mM TCEP) followed by SEC using a HiLoad 26/60 Superdex200 column in SEC buffer (25 mM HEPES pH7.5, 150 mM sodium chloride, 0.15 mM pyridoxal phosphate, 0.5 mM TCEP). Protein concentration was measured and calculated using the absorbance at 280 nm. Extracts were diluted 1 in 4 and 10 uL was analysed by SDS PAGE.
To measure DAPA-AT enzyme activity in the presence of herbicide (candidate compound), 0.5 μL of the herbicide was incubated with 20 μL of enzyme mix (100 mM EPPS pH 8.6, 0.1 mM pyridoxal phosphate, 0.1 mg/mL BSA, 25 nM BIO3-BIO1 enzyme) for 10 minutes at 20° C. in a well of a 384-well black plate, followed by the addition of 20 μL of substrate mix (final concentration of 100 mM EPPS pH 8.6, 0.1 mM pyridoxal phosphate, 0.1 mg/mL BSA, 10 μM spermidine, 1 μM KAPA, 100 mM NaHCO3) and further incubation for 60 minutes at 20° C. The reaction was terminated by the addition of 50 μL of derivatisation mix consisting of 185 mM borate NaOH pH 9.4, 3 mM o-phthalaldehyde, 6 mM β-mercaptoethanol, 22.5% (v/v) ethanol, 3% (v/v) methanol. The fluorescent product produced by the reaction of DAPA with o-phthalaldehyde and β-mercaptoethanol was measured at 470 nm after excitation at 410 nm. The percentage inhibition was calculated using the equation, % inhibition=100×((((MAX−MIN)−(X−MIN))/(MAX−MIN))), where MIN and MAX are the average of the minimum reaction and maximum reaction controls and X is the test sample. Compounds are typically added directly to the assay plate in a serial 3× dilution from a top final concentration of 100 μM over 10 different concentrations. The percent inhibition values are fitted to a dose-response using the equation Y=Bottom+(Top−Bottom)/(1+((X^Hill Slope)/(IC50^Hill Slope))) to calculate the compound concentration that gives 50% inhibition (IC50).

Row | SMILES | inhibition at 1 µM | inhibition at 5 µM | inhibition at 20 µM | inhibition at 100 µM | inhibition at 0.2 µM
1 | CCOC(=O)c1nn(-c2ccc3c(c2)OC(F)(F)C(F)(F)O3)c2cccc(C(C)=O)c2c1=O [Compound A, ethyl 5-acetyl-4-oxo-1-(2,2,3,3-tetrafluoro-1,4-benzodioxin-6-yl)cinnoline-3-carboxylate] | 59% | 84% | – | – | –
2 | CC(O)C(N)CCCCC(=O)O (centres unmarked) [Compound B, [5-carboxy-1-(1-hydroxyethyl)pentyl]ammonium; chloride] | – | – | 84% | 95% | –
3 | CCn1c(C)c(-c2ccc(F)cc2F)c(=O)c(C(=O)O)c1-c1ccc(Cl)c(Cl)c1 [Compound C, 2-(3,4-dichlorophenyl)-5-(2,4-difluorophenyl)-1-ethyl-6-methyl-4-oxo-pyridine-3-carboxylic acid] | 64% | 85% | – | – | 29%
4 | CCn1c(C)c(-c2cc(OC(F)(F)F)ccc2Cl)c(=O)c(C(=O)O)c1-c1ccc(Cl)c(Cl)c1 [Compound D, 5-[2-chloro-5-(trifluoromethoxy)phenyl]-2-(3,4-dichlorophenyl)-1-ethyl-6-methyl-4-oxo-pyridine-3-carboxylic acid] | 84% | 95% | – | – | 51%
5 | C[C@@H](N)COc1cccc(C(=O)O)n1 [Compound E, [(1R)-2-(6-carboxypyridin-1-ium-2-yl)oxy-1-methyl-ethyl]ammonium; dichloride] | – | – | 80% | 94% | –
6 | CCn1c(Cn2ccc(C(F)(F)F)n2)cc(=O)c(C(=O)O)c1-c1ccc(Cl)c(Cl)c1 [Compound L, 2-(3,4-dichlorophenyl)-1-ethyl-4-oxo-6-[[3-(trifluoromethyl)pyrazol-1-yl]methyl]pyridine-3-carboxylic acid] | 44% | 83% | – | – | 6%
7 | CCn1c(-c2ccc(Cl)c(Cl)c2)c(C(=O)O)c(=O)c2cc(F)ccc21 [Compound M, 2-(3,4-dichlorophenyl)-1-ethyl-6-fluoro-4-oxo-quinoline-3-carboxylic acid] | 58% | 82% | – | – | –
